One may read the mass density as the mass of a sample divided by its volume.

Data on three compounds can be found in the NIST ThermoML archive (doi:10.1021/je040006u).

Numbers after ± are expanded uncertainties.

The conditions of series [1]: 101.3 kPa, Liquid, Pycnometric method.
The nature of series [2]: xn = mol fraction of the nth substance listed. As to conditions: 101.3 kPa, Liquid, Pycnometric method, x1 = 1.

For `COCCO` [2-methoxyethan-1-ol], the mass density in series [1] (291.15 K) came to 966.52 ± 2.6 kg/m3; in series [1] (293.15 K) it was 964.88 ± 2.6 kg/m3; in series [1] (298.15 K), 960.29 ± 2.6 kg/m3; in series [1] (303.15 K), 955.76 ± 2.6 kg/m3; in series [1] (308.15 K) it was 951.1 ± 2.6 kg/m3.

For `COCCO` [2-methoxyethan-1-ol] + CCCNCCC, the mass density in series [2] (291.15 K) worked out at 966.52 ± 2.6 kg/m3; in series [2] (293.15 K) it was 964.88 ± 2.6 kg/m3; in series [2] (298.15 K), 960.29 ± 2.6 kg/m3; in series [2] (303.15 K), 955.76 ± 2.6 kg/m3; in series [2] (308.15 K), 951.1 ± 2.6 kg/m3.

As for `CCCNCCC` [dipropylamine], the mass density in series [1] (291.15 K) was found to be 738.47 ± 2 kg/m3; in series [1] (293.15 K), 737.2 ± 2 kg/m3; in series [1] (298.15 K), 732.56 ± 2 kg/m3; in series [1] (303.15 K), 728.2 ± 2 kg/m3; in series [1] (308.15 K) it was 723.64 ± 2 kg/m3.
